Laboratory results: the supplement of paper PMC10307832

Experiments:
Experiment in all cases: relative viability (nuclei count vs DMSO), 5 days (fraction); higher = more cells survive
[1] = compound: Cn1cc(-c2cnn3c(N)c(Br)c([C@@H]4CCCNC4)nc23)cn1 + C[C@@H](Oc1cc(-c2cnn(C3CCNCC3)c2)cnc1N)c1c(Cl)ccc(F)c1Cl [Crizotinib] (partner 1 µM)
Method in brief: (§1)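 For relative viability, nuclei counts in treated wells were divided by those in vehicle wells. Lung cancer cell lines had been pin-tool dosed in 1536-well plates the day after seeding and cultured for 5 days, then fixed and stained in one step (final 0.05% Triton X-100, 1% formaldehyde, 1 ug/ml Hoechst) and imaged at 4×. Doses were one drug alone or a fixed anchor-drug dose plus five library-drug doses (not always all listed) in √10 steps, and values are duplicate-plate medians.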

[2] = compound: Cn1cc(-c2cnn3c(N)c(Br)c([C@@H]4CCCNC4)nc23)cn1 + N=C(N)NC(=N)NCCc1ccccc1 [Phenformin] (partner 250 µM)
Method in brief: as §1

[3] = compound: Cn1cc(-c2cnn3c(N)c(Br)c([C@@H]4CCCNC4)nc23)cn1 + CC1(C)CCC(c2ccc(Cl)cc2)=C(CN2CCN(c3ccc(C(=O)NS(=O)(=O)c4ccc(N[C@H](CCN5CCOCC5)CSc5ccccc5)c(S(=O)(=O)C(F)(F)F)c4)cc3)CC2)C1 [Navitoclax] (partner 0.5 µM)
Method in brief: as §1

[4] = compound: Cn1cc(-c2cnn3c(N)c(Br)c([C@@H]4CCCNC4)nc23)cn1 + Nc1ncn([C@H]2C[C@H](O)[C@@H](CO)O2)c(=O)n1 [Decitabine] (partner 2 µM)
Method in brief: as §1

Cell Line	relative viability ([1]; first compound 0.05 µM)	relative viability ([1]; first compound 0.1581 µM)	relative viability ([1]; first compound 0.5 µM)	relative viability ([1]; first compound 1.581 µM)	relative viability ([1]; first compound 5 µM)	relative viability ([2]; first compound 0.05 µM)	relative viability ([2]; first compound 0.1581 µM)	relative viability ([2]; first compound 0.5 µM)	relative viability ([2]; first compound 1.581 µM)	relative viability ([2]; first compound 5 µM)	relative viability ([3]; first compound 0.05 µM)	relative viability ([3]; first compound 0.1581 µM)	relative viability ([3]; first compound 0.5 µM)	relative viability ([3]; first compound 1.581 µM)	relative viability ([3]; first compound 5 µM)	relative viability ([4]; first compound 0.05 µM)	relative viability ([4]; first compound 0.1581 µM)	relative viability ([4]; first compound 0.5 µM)	relative viability ([4]; first compound 1.581 µM)	relative viability ([4]; first compound 5 µM)
201T	1.03	1.03	1.06	1.05	1.07	0.452	0.517	0.429	0.366	0.405	1.14	1.18	1.16	1.32	1.22	0.809	0.856	0.844	0.882	0.93
A549	0.783	0.962	0.778	0.531	0.492	0.158	0.907	0.215	0.149	0.115	1.25	1.3	1.14	0.916	0.917	0.323	0.281	0.279	0.278	0.116
A-427	0.938	1.02	0.922	0.725	0.566	0.348	0.324	0.288	0.284	0.269	1.06	1	0.9	0.953	0.733	0.534	0.591	0.555	0.544	0.33
ABC-1	1.16	0.935	1.06	0.563	0.316	0.252	0.236	0.254	0.218	0.192	–	–	–	–	–	–	1.3	1.02	1.18	0.731
BEN	0.911	0.969	0.861	0.745	0.608	0.249	0.213	0.288	0.268	0.284	0.0592	0.289	0.0589	0.0666	0.0768	0.701	0.763	0.663	0.709	0.629
CAL-12T	0.612	0.459	0.485	0.321	0.176	0.478	0.585	0.537	0.377	0.155	1.36	1.24	1.12	0.755	0.159	–	–	–	–	–
COR-L23	0.594	0.809	0.731	0.518	0.179	0.479	0.474	0.443	0.298	0.191	0.854	1.13	0.973	0.965	0.346	0.407	0.489	0.481	0.354	0.248
COR-L 105	0.739	0.722	0.713	0.535	0.462	0.504	0.508	0.452	0.379	0.301	0.742	0.693	0.649	0.713	0.454	0.66	0.703	0.563	0.597	0.608
Calu-6	0.964	0.643	0.603	0.253	0.167	–	–	–	–	–	0.997	0.597	0.68	0.211	0.146	–	–	–	–	–
ChaGo-K-1	1.15	1.36	1.24	0.92	1.05	0.467	0.523	0.509	0.46	0.503	0.966	0.967	0.981	0.737	0.607	0.52	0.559	0.526	0.563	0.601
EBC-1	0.179	0.179	0.186	0.174	0.17	–	–	–	–	–	0.39	0.347	0.286	0.304	0.238	–	–	–	–	–
EKVX	0.942	1.27	1.09	0.821	0.945	0.223	0.254	0.257	0.245	0.194	0.828	1.13	0.911	0.918	0.782	0.768	0.414	0.343	0.571	0.41
EMC-BAC-2	0.73	0.769	0.715	0.646	0.703	0.515	0.509	0.505	0.405	0.461	1.26	1.25	1.14	1.01	1.43	0.976	1.02	0.981	0.827	0.887
EPLC-272H	0.943	1.07	1	0.945	0.826	0.288	0.275	0.321	0.292	0.188	1.2	1.1	1.2	0.966	0.969	0.342	0.304	0.336	0.303	0.253
H3255	0.799	0.852	0.942	0.729	0.5	0.372	0.353	0.345	0.385	0.322	0.561	0.507	0.379	0.531	0.29	0.624	0.586	0.585	0.647	0.474
HARA	0.935	1.12	0.987	0.842	0.369	0.468	0.518	0.448	0.36	0.136	1.11	1.21	1.25	1.05	0.725	0.691	0.497	0.624	0.584	0.41
HCC-15	0.926	0.98	0.877	0.722	0.652	0.494	0.524	0.429	0.406	0.349	0.803	0.792	0.635	0.626	0.669	0.652	0.689	0.633	0.552	0.561

Cell Line	relative viability ([1]; first compound 0.05 µM)	relative viability ([1]; first compound 0.1581 µM)	relative viability ([1]; first compound 0.5 µM)	relative viability ([1]; first compound 1.581 µM)	relative viability ([1]; first compound 5 µM)	relative viability ([2]; first compound 0.05 µM)	relative viability ([2]; first compound 0.1581 µM)	relative viability ([2]; first compound 0.5 µM)	relative viability ([2]; first compound 1.581 µM)	relative viability ([2]; first compound 5 µM)	relative viability ([3]; first compound 0.05 µM)	relative viability ([3]; first compound 0.1581 µM)	relative viability ([3]; first compound 0.5 µM)	relative viability ([3]; first compound 1.581 µM)	relative viability ([3]; first compound 5 µM)	relative viability ([4]; first compound 0.05 µM)	relative viability ([4]; first compound 0.1581 µM)	relative viability ([4]; first compound 0.5 µM)	relative viability ([4]; first compound 1.581 µM)	relative viability ([4]; first compound 5 µM)
HCC-44	0.906	1.02	0.913	0.86	0.789	0.155	0.193	0.179	0.188	0.172	0.94	1.05	1.23	0.916	1.18	0.887	1.06	1.04	0.969	0.964
HCC-78	0.323	0.391	0.378	0.344	0.218	–	0.687	0.796	0.7	0.605	0.851	0.794	0.796	0.737	0.56	0.733	0.729	0.783	0.675	0.492
IA-LM	0.944	1.01	0.886	0.321	0.271	–	–	–	–	–	0.858	0.974	0.609	0.412	0.252	–	–	–	–	–
LCLC-103H	1.04	1.11	1.13	1.03	1.1	0.297	0.338	0.364	0.3	0.299	–	–	–	–	–	0.745	0.73	0.809	0.695	0.816
NCI-H358	0.586	0.575	0.375	0.655	0.339	0.293	0.344	0.308	0.216	0.261	–	–	–	–	–	0.206	0.235	0.232	0.217	0.185
NCI-H522	–	–	–	–	–	0.69	0.625	0.642	0.669	0.664	–	–	–	–	–	0.675	0.619	0.664	0.669	0.642
NCI-H650	0.778	0.708	0.706	0.627	0.606	0.426	0.413	0.447	0.486	0.399	–	–	–	–	–	0.317	0.341	0.34	0.39	0.434
NCI-H661	1.15	1.23	1.12	1.05	0.98	0.273	0.259	0.29	0.283	0.276	–	–	–	–	–	0.551	0.578	0.529	0.462	0.373
NCI-H1299	0.992	0.931	0.965	0.676	0.707	–	–	–	–	–	1.03	1.06	1.08	1.02	0.936	–	–	–	–	–
NCI-H1395	–	–	–	–	–	0.44	0.41	0.435	0.359	0.358	1.18	0.698	0.953	0.68	0.423	0.761	0.554	0.63	0.501	0.378
NCI-H1563	0.78	0.812	0.933	0.782	0.8	0.593	0.658	0.642	0.614	0.605	–	–	–	–	–	–	–	–	–	–
NCI-H1648	–	–	–	–	–	–	–	–	–	–	–	–	–	–	–	0.383	0.483	0.487	0.467	0.504
NCI-H1703	0.671	0.363	0.325	0.18	0.134	–	–	–	–	–	1.08	0.441	0.309	0.147	0.122	–	–	–	–	–
NCI-H1793	–	–	–	–	–	0.322	0.465	0.435	0.328	0.252	0.43	0.517	0.386	0.383	0.292	0.532	0.543	0.542	0.498	0.178
NCI-H2228	0.502	0.491	0.404	0.419	0.277	0.274	0.256	0.373	0.184	0.194	1.09	1.12	1.13	0.64	0.481	–	–	–	–	–
NCI-H2342	–	–	–	–	–	0.578	0.6	0.682	0.533	0.593	–	–	–	–	–	0.728	0.731	0.696	0.639	0.742
SW 900	–	–	–	–	–	0.656	0.776	0.726	0.428	0.228	–	–	–	–	–	0.383	0.409	0.418	0.42	0.595
